Reference: patent US20150094294A1, “COMPOUNDS AND METHODS FOR TREATING MALARIA” (Cellceutix Corporation, priority 2012, published 2015)
Converted amounts (≈) assume the structure as drawn.

Assays:
Format in all cases: cell-based
[1] = system: HepG2 cells; experiment: Cytotoxicity against HepG2 cells; details: for Cytotoxicity HepG2 EC50: HepG2 cells
[2] = system: P. falciparum 3D7 (chloroquine-sensitive); experiment: Anti-malarial activity, P. falciparum 3D7 culture, 72 hour, DNA content by flow cytometry; details: synchronized ring-stage parasites
How it was run: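 Magnet-synchronized ring-stage parasites in RPMI 1640/Albumax II were plated at 0.5% parasitemia, 4% final hematocrit, with compound added as 2× dilutions (2.5 μM to 20 nM) for 72 h. Fixed, Triton-permeabilized cells were stained with SYTOX Green (5 μM final), and DNA content was measured by flow cytometry to derive IC50.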

[3] = system: 3T3 cells; experiment: Cytotoxicity against 3T3 cells; details: for Cytotoxicity 3T3 EC50: 3T3 cells
[4] = system: P. falciparum DD2 (chloroquine-resistant); experiment: Anti-malarial activity, P. falciparum DD2 culture, 72 hour, DNA content by flow cytometry; details: synchronized ring-stage parasites
Experimental: Numerous compounds were screened in cultures of the malaria parasite P. falciparum 3D7 (chloroquine-sensitive) and DD2 (chloroquine-resistant). The compounds were also screened for toxixcity against 3T3 cells, HepG2 cells, and in a hemolysis assay. In brief, P. falciparum parasites were cultured in RPMI 1640 (Invitrogen) supplemented with Albumax II (Invitrogen). For synchronization, schizont stage parasites were magnet purified using a SuperMACS™ II Cell Separation Unit (Miltenyi Biotech). For IC50 determinations, synchronized ring-stage parasites were plated at 0.5% parasitemia and 8% hematocrit in 96-well plates at a total volume of 50 μL. Serial dilutions of 2× concentration of the respective compound, ranging from 2.5 μM to 20 nM, were added to the wells to bring the total volume up to 100 μL and 4% hematocrit. Compounds were assayed for a 72 hour period, after which the cultures were fixed with a solution of 4% paraformaldehyde and 0.08% glutaraldhyde in PBS. The cells were then permeabilized with 0.25% Triton X-100, and SYTOX Green Nucleic Acid Stain (Invitrogen) in PBS was added to a final concentration of 5 μM. DNA content, as an indicator of parasitemia, was analyzed on an Accuri C6 Flow Cytometer with C-Sampler. IC50 curves were generated using GraphPad Prism (GraphPad Software).

[5] = in vitro
[6] = Cytotoxicity against HepG2 cells; details: human, HepG2 cells; read-out: Cytotoxicity HepG2 EC50
[7] = Cytotoxicity against 3T3 cells; details: mouse, 3T3 cells; read-out: Cytotoxicity 3T3 EC50
[8] = Plasmodium falciparum, 3D7, 72 h

Compound | IC50 [2] [nM] | IC50 [4] [nM] | EC50 [5] [µg/mL] | IC50 ([4]; Plasmodium falciparum) [nM] | IC50 [2, 8] [nM] | EC50 [1] [µM] | EC50 [3] [µM] | Cytotoxicity HepG2 EC50 [1] | Cytotoxicity 3T3 EC50 [3] | EC50 [6] [µM] | EC50 [7] [µM]
CC(C)(C)c1cc(N)c(SCCN)c(NC(=O)c2cccc(C(=O)Nc3cc(C(C)(C)C)cc(N)c3SCCN)n2)c1 [Compound 117] | 732 | 803 | – | – | – | 9 | 5 | – | – | – | –
N=C(N)NCCOc1ccccc1C(=O)Nc1ccc2c(c1)Cc1cc(NC(=O)c3ccccc3OCCNC(=N)N)ccc1-2 [Compound 172] | – | – | 22 (≈ 36.3 µM) | 297 | – | – | – | Insol. | Insol. | – | –
N=C(N)NCCCOc1cc(OCCCNC(=N)N)c(-c2ccccc2)cc1-c1ccccc1 [Compound 143] | – | 102 | – | – | – | 119 | 74 | – | – | – | –
N=C(N)NCCc1cc(Br)cc(C#Cc2cc(C#Cc3cc(Br)cc(CCNC(=N)N)c3)cc(C(F)(F)F)c2)c1 [Compound 179] | – | – | 22 (≈ 32.6 µM) | 795 | 880 | – | – | insol | insol | – | –
CCN(CC)CCN(CCN)c1c(NC(=O)Nc2cc(C(F)(F)F)cc([N+](=O)[O-])c2N(CCN)CCN(CC)CC)cc(C(F)(F)F)cc1[N+](=O)[O-] [Compound 123] | 157 | 331 | – | – | – | 433 | 284 | – | – | – | –
CC(C)(C)c1ccc(NC(=O)CCCCNC(=N)N)c(-c2ccc(-c3cc(C(C)(C)C)ccc3NC(=O)CCCCNC(=N)N)cc2)c1 [Compound 141] | 625 | 709 | – | – | – | 55 | 28 | – | – | – | –
CC(C)(C)c1cc(NC(=O)CCCCNS(C)(=O)=O)c(SCCNS(C)(=O)=O)c(NC(=O)c2cccc(C(=O)Nc3cc(C(C)(C)C)cc(NC(=O)CCCCNS(C)(=O)=O)c3SCCNS(C)(=O)=O)c2)c1 [Compound 107] | – | – | > 1000 | 484 | 295 | – | – | – | – | > 1000 | > 1000
N=C(N)NCCCc1cccc(-c2ccc3c4ccc(-c5cccc(CCCNC(=N)N)c5)cc4n(CCCNC(=N)N)c3c2)c1 [Compound 155] | – | – | 6 (≈ 9.73 µM) | 457 | 272 | – | – | – | – | 100 | 131
N=C(N)NCCCCC(=O)Nc1ccc(Oc2cccc(Oc3ccc(NC(=O)CCCCNC(=N)N)cc3)c2)cc1 [Compound 157] | – | – | 299 (≈ 520 µM) | 244 | 322 | – | – | – | – | > 100 | > 100
NCc1cc(C(F)(F)F)ccc1Oc1ccc(Oc2ccc(C(F)(F)F)cc2CN)cc1 [Compound 166] | – | – | 364 (≈ 798 µM) | 1230 | 991 | – | – | – | – | 71 | 17
N=C(N)NCCc1cccc(NC(=O)c2cc(C(=O)Nc3cccc(CCNC(=N)N)c3)ncn2)c1 [Compound 100] | – | – | > 1000 | 135 | 35 | – | – | – | – | 830 | 769
N=C(N)NCCCCC(=O)Nc1ccc(-c2nnc(-c3ccc(NC(=O)CCCCNC(=N)N)cc3)o2)cc1 [Compound 131] | – | – | 212 (≈ 397 µM) | 65 | 42 | – | – | – | – | 356 | 322
CC(N)C(=O)Nc1ccc(-c2ccc(-c3ccc(NC(=O)C(C)N)cc3)cc2)cc1 (stereo not drawn) [Compound 136] | 178 | 421 | – | – | – | > 1000 | > 1000 | – | – | – | –

More lines, main results first:

IC50 [2] [nM] | IC50 [4] [nM] | EC50 [5] [µg/mL] | IC50 ([4]; Plasmodium falciparum) [nM] | IC50 [2, 8] [nM] | Compound | EC50 [1] [µM] | EC50 [3] [µM] | Cytotoxicity HepG2 EC50 [1] | Cytotoxicity 3T3 EC50 [3] | EC50 [6] [µM] | EC50 [7] [µM]
– | – | 65 (≈ 67.5 µM) | 431 | 610 | N=C(N)N1CCC(Oc2cc(OC3CCN(C(=N)N)C3)c(C(F)(F)F)cc2NC(=O)c2cc(C(=O)Nc3cc(C(F)(F)F)c(O[C@@H]4CCN(C(=N)N)C4)cc3O[C@@H]3CCN(C(=N)N)C3)ncn2)C1 (stereo partly drawn) [Compound 111] | – | – | – | – | 84 | 32
– | – | 15 (≈ 30.3 µM) | 980 | 610 | Fc1cc(NC2CCNCC2)cc(Oc2ccc(Oc3cc(F)cc(NC4CCNCC4)c3)cc2)c1 [Compound 164] | – | – | – | – | 78 | 23
64 | 238 | – | – | – | CN(C)CCSc1cc(SCCN(C)C)c(C(F)(F)F)cc1NC(=O)c1cc(C(=O)Nc2cc(C(F)(F)F)c(SCCN(C)C)cc2SCCN(C)C)ncn1 [Compound 102] | 49.8 | < 2 | – | – | – | –
147 | 207 | – | – | – | O=C(Nc1cc(C(F)(F)F)c(OC2CCNC2)cc1OC1CCNC1)c1cc(C(=O)Nc2cc(C(F)(F)F)c(OC3CCNC3)cc2OC2CCNC2)ncn1 (stereo not drawn) [Compound 103] | 382 | 256 | – | – | – | –
– | – | 560 (≈ 1040 µM) | 829 | 696 | CC(C)N1CCc2ccc(NC(=O)c3cc(C(=O)Nc4ccc5c(c4)CCN(C(C)C)CC5)ncn3)cc2CC1 [Compound 147] | – | – | – | – | > 100 | > 100
– | – | 59 (≈ 62.7 µM) | 591 | 569 | N=C(N)NCCCCC(=O)Nc1cc(Br)cc(NC(=O)c2cc(C(=O)Nc3cc(Br)cc(NC(=O)CCCCNC(=N)N)c3SCCO)ncn2)c1SCCO [Compound 170] | – | – | – | – | 165 | 110
– | – | > 1000 | 740 | 688 | NCCSc1c(N)cc(C(F)(F)F)cc1NC(=O)c1cn(C2CC2)c2cc(N3CCNCC3)c(F)cc2c1=O [Compound 181] | – | – | – | – | 154 | 81
– | – | 123 (≈ 227 µM) | 331 | 308 | NCCN1CCc2ccc(NC(=O)c3cc(C(=O)Nc4ccc5c(c4)CCN(CCN)CC5)ncn3)cc2CC1 [Compound 146] | – | – | – | – | 373 | 373
– | – | > 1000 | 98 | 227 | N=C(N)NCCCCC(=O)Nc1cc(C(F)(F)F)cc(NC(=O)c2cc(C(=O)Nc3cc(C(F)(F)F)cc(NC(=O)CCCCNC(=N)N)c3SCCC(=O)O)ncn2)c1SCCC(=O)O [Compound 168] | – | – | – | – | > 100 | > 100
– | – | 583 (≈ 653 µM) | 113 | 47 | N#Cc1cccc(C(=O)Nc2cc(C(F)(F)F)cc(NC(=O)c3cc(C(=O)Nc4cc(C(F)(F)F)cc(NC(=O)c5cccc(C#N)c5)c4SCCN)ncn3)c2SCCN)c1 [Compound 101] | – | – | – | – | 27 | 74.4
– | – | 1 (≈ 1.47 µM) | 393 | 593 | NCCSc1ccc(C(F)(F)F)cc1C(=O)Nc1ccc(-c2ccc(NC(=O)c3cc(C(F)(F)F)ccc3SCCN)cc2)cc1 [Compound 174] | – | – | – | – | < 16 | < 16
– | – | > 1000 | 274 | 204 | N=C(N)NCCCCC(=O)Nc1ccc(-c2ccc(NC(=O)CCCCNC(=N)N)c(C(F)(F)F)c2)cc1C(F)(F)F [Compound 173] | – | – | – | – | > 2000 | > 2000
– | – | 35 (≈ 41.7 µM) | 664 | 680 | N=C(N)NCCSc1cc(SCCN)c(NC(=O)c2cc(C(=O)Nc3cc(C(F)(F)F)c(SCCNC(=N)N)cc3SCCN)ncn2)cc1C(F)(F)F [Compound 115] | – | – | – | – | 47 | 26
– | – | 58 (≈ 67.1 µM) | 886 | 881 | N=C(N)NCCCCOc1cc(OCCCCNC(=N)N)c(C(F)(F)F)cc1NC(=O)Nc1cc(C(F)(F)F)c(OCCCCNC(=N)N)cc1OCCCCNC(=N)N [Compound 128] | – | – | – | – | 232 | 121
83 | 45.9 | – | – | – | N=C(N)NCCSc1ccc(NC(=O)Nc2ccc(SCCNC(=N)N)c(C(F)(F)F)c2)cc1C(F)(F)F [Compound 120] | 165 | 65.1 | – | – | – | –
– | – | 7 (≈ 7.01 µM) | 951 | 724 | N=C(N)NCCCCOc1cc(OCCCCNC(=N)N)c(C(F)(F)F)cc1NC(=O)Nc1ccc(NC(=O)Nc2cc(C(F)(F)F)c(OCCCCNC(=N)N)cc2OCCCCNC(=N)N)cc1 [Compound 167] | – | – | – | – | 60 | 37
